According to patent US12180193B2, “Accelerating fibrosarcoma protein degrading compounds and associated methods of use” (Arvinas Operations, Inc., priority 2020, dated 2024):

How the values were obtained:
BRAF V600E = biological target: T1, BRAF V600E (Homo sapiens, UniProt P15056, V600E); test: Cellular assay of target protein degradation, T-Rex 293 cells stably transfected with HA-BRAF_V600E (HA immunofluorescence, high content imaging); format: cell-based; settings: T-Rex 293 HA-BRAF V600E; for DC50: half maximal degradation, read-out: BRaf V600E DC50; for Dmax: maximum degradation observed
T1 construct: expressed in transfected cells
T1 sequence (P15056 whole entry V600E): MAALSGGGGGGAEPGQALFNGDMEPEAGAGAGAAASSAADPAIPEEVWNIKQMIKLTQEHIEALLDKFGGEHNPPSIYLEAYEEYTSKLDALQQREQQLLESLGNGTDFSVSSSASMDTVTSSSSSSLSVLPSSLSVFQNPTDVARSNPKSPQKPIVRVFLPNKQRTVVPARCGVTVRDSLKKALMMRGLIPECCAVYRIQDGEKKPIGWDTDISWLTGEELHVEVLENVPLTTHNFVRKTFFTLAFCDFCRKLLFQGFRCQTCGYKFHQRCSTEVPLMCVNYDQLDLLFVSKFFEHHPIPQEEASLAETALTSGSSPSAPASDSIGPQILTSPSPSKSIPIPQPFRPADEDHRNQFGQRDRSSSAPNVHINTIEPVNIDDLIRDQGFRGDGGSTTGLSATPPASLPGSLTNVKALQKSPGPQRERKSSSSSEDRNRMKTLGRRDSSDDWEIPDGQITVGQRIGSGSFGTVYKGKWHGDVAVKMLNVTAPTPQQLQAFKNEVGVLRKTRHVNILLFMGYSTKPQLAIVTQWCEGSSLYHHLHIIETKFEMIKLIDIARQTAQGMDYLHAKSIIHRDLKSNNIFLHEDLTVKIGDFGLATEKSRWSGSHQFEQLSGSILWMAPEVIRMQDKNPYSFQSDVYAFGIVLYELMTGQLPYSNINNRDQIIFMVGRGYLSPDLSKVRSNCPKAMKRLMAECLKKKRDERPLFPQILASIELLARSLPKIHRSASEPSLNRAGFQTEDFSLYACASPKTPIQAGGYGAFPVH
Experimental: Protocol for a cellular assay of target protein degradation (T-Rex 293 cells). T-Rex 293 cells were purchased from Invitrogen (#R71007), and stably transfected with a pcDNA4/TO_HA-BRAF_V600E construct, using 400 ug Zeocin for selection. V600e cells are plated in Dulbecco's Modified Eagle Medium (DMEM; Gibco #11965118) containing 10% fetal bovine serum (FBS; Gibco #16000044) and 1 ng/mL doxycycline (Selleckchem #4163) at a density of 5,000 cells/well in 50 μl on poly-D-lysine (PDL) coated, black clear bottom 96-well plates (Corning #354640) and incubated for 24 hours at 37° C. with 5% C02. The following day 50 ul of tested compound was added at 2x concentration in DMEM with a final concentration ranging from 1 μM to 0.1 nM in 0.1% dimethylsulfoxide (DMSO), and incubated for 24 hours at 37° C. with 5% CO2. At the end of the experimental treatment, the media was flicked off and cells washed once with phosphate-buffered saline (PBS)++ (PBS with CaCl and MgCl) and gently replacing with 200 μl PBS++ per well. The PBS++ was removed and 50 uL 4% paraformaldehyde (PFA; EMS #15710) in PBS++ was added, and incubate at room temperature for 15 minutes. Cells were washed once with PBS++ and 50 uL 0.1% Triton X-100 (Fisher #BP151-500) in PBS++ was added. Plate was incubate for 5 minutes at room temperature. Cells were was once with PBS++. Cells were blocked with 100 uL Licor blocking buffer (Licor #927-50000) for 1 hour at room temperature. Next, 50 uL of HA antibody (CST #3724) at 1:1000 in Licor blocking buffer was added, and the plate incubate overnight at 4° C. The plates were parafilmed to prevent evaporation. Plate was washed three times with 200 uL PBS++. Fifty microliters of HCS secondary antibody solution [1:1000 Hoechst (Invitrogen #H3570), 1:1000 phalloidin (Invitrogen #A22287) and 1:5000 Alexa fluor (Invitrogen #A11008)] was added and incubated for 1 hour. Plate was wash three times with 200 uL PBS++, and imaged on a high content reader (ImageXpress Micro XLS, Molecular Devices).
(§1) The concentration of exemplary compound that leads to half maximal degradation (DC50) as well as the maximum degradation observed (Dmax, conventionally expressed as a percentage of control), which are below in Table 2 for the exemplary compounds of Table 1.

BRAF G466V = biological target: T2, BRAF G466V (Homo sapiens, UniProt P15056, G466V); test: Cellular assay of target protein degradation, T-Rex 293 cells stably transfected with HA-BRAF G466V (HA immunofluorescence, high content imaging); format: cell-based; settings: T-Rex 293 HA-BRAF G466V; for DC50: half maximal degradation, read-out: BRaf G466V DC50; for Dmax: maximum degradation observed
T2 construct: expressed in transfected cells
T2 sequence (P15056 whole entry G466V): as the sequence (P15056 whole entry V600E) above, with G466V, E600V counted along it
Experimental: Protocol for a cellular assay of target protein degradation (T-Rex 293 cells). T-Rex 293 cells were purchased from Invitrogen (#R71007), and stably transfected with a pcDNA4/TO_HA-BRAF G466V construct, using 400 ug Zeocin for selection. G466V cells are plated in Dulbecco's Modified Eagle Medium (DMEM; Gibco #11965118) containing 10% fetal bovine serum (FBS; Gibco #16000044) and 0.75 ng/mL doxycycline (Selleckchem #4163) at a density of 5,000 cells/well in 50 μl on poly-D-lysine (PDL) coated, black clear bottom 96-well plates (Corning #354640) and incubated for 24 hours at 37° C. with 5% CO2. The following day 50 ul of tested compound was added at 2x concentration in DMEM with a final concentration ranging from 30 nM to 3 pM in 0.1% dimethylsulfoxide (DMSO), and incubated for 24 hours at 37° C. with 5% CO2. At the end of the experimental treatment, the media was flicked off and cells washed once with phosphate-buffered saline (PBS)++ (PBS with CaCl and MgCl) and gently replacing with 200 μl PBS++ per well. The PBS++ was removed and 50 uL 4% paraformaldehyde (PFA; EMS #15710) in PBS++ was added, and incubate at room temperature for 15 minutes. Cells were washed once with PBS++ and 50 uL 0.1% Triton X-100 (Fisher #BP151-500) in PBS++ was added. Plate was incubate for 5 minutes at room temperature. Cells were was once with PBS++. Cells were blocked with 100 uL Licor blocking buffer (Licor #927-50000) for 1 hour at room temperature. Next, 50 uL of HA antibody (CST #3724) at 1:1000 in Licor blocking buffer was added, and the plate incubate overnight at 4° C. The plates were parafilmed to prevent evaporation. Plate was washed three times with 200 uL PBS++. Fifty microliters of HCS secondary antibody solution [1:1000 Hoechst (Invitrogen #H3570), 1:1000 phalloidin (Invitrogen #A22287) and 1:5000 Alexa fluor (Invitrogen #A11008)] was added and incubated for 1 hour. Plate was wash three times with 200 uL PBS++, and imaged on a high content reader (ImageXpress Micro XLS, Molecular Devices).
as §1

Row | SMILES | DC50 (BRAF V600E) [nM] | Dmax (BRAF V600E) [%] | DC50 (BRAF G466V) [nM] | Dmax (BRAF G466V) [%]
1 | O=C1CCC(N2Cc3cc(N4CCC(F)(CN5CC6(C5)CN(c5ccc(-c7cnc8[nH]cc(C(=O)c9c(F)ccc(NS(=O)(=O)N%10CC[C@@H](F)C%10)c9F)c8c7)cc5)C6)CC4)ccc3C2=O)C(=O)N1 (stereo partly drawn) [Compound 19, (3R)-N-[3-(5-{4-[6-({1-[2-(2,6-dioxopiperidin-3-yl)-1-oxo-2,3-dihydro-1H-isoindol-5-yl]-4-fluoropiperidin-4-yl}methyl)-2,6-diazaspiro[3.3]heptan-2-yl]phenyl}-1H-pyrrolo[2,3-b]pyridine-3-carbonyl)-2,4-difluorophenyl]-3-fluoropyrrolidine-1-sulfonamide] | 5 to 50 | 35 to 70 | 1 to 10 | 35 to 70
2 | COc1cc(N2CC3(C2)CN(CC2CCN(c4ccc(-c5cnc6[nH]cc(C(=O)c7c(F)ccc(NS(=O)(=O)N8CC[C@@H](F)C8)c7F)c6c5)cc4)CC2)[C@@H]3C)cc2c1C(=O)N(C1CCC(=O)NC1=O)C2 (stereo partly drawn) [Compound 20, (3R)-N-(3-{5-[4-(4-{[(1R)-6-[2-(2,6-dioxopiperidin-3-yl)-7-methoxy-1-oxo-2,3-dihydro-1H-isoindol-5-yl]-1-methyl-2,6-diazaspiro[3.3]heptan-2-yl]methyl}piperidin-1-yl)phenyl]-1H-pyrrolo[2,3-b]pyridine-3-carbonyl}-2,4-difluorophenyl)-3-fluoropyrrolidine-1-sulfonamide] | 5 to 50 | 35 to 70 | < 1 | 35 to 70
3 | COc1cc(N2CC3(CN(CCc4ccc(-c5cnc6[nH]cc(C(=O)c7c(F)ccc(NS(=O)(=O)N8CC[C@@H](F)C8)c7F)c6c5)cc4)C3)C2)cc2c1C(=O)N(C1CCC(=O)NC1=O)C2 (stereo partly drawn) [Compound 21, (3R)-N-(3-{5-[4-(2-{6-[2-(2,6-dioxopiperidin-3-yl)-7-methoxy-1-oxo-2,3-dihydro-1H-isoindol-5-yl]-2,6-diazaspiro[3.3]heptan-2-yl}ethyl)phenyl]-1H-pyrrolo[2,3-b]pyridine-3-carbonyl}-2,4-difluorophenyl)-3-fluoropyrrolidine-1-sulfonamide] | 5 to 50 | 35 to 70 | 1 to 10 | 35 to 70
4 | COc1cc(CCCN2CC3(C2)CN(c2ccc(-c4cnc5[nH]cc(C(=O)c6c(F)ccc(NS(=O)(=O)N7CC[C@@H](F)C7)c6F)c5c4)cc2)C3)cc2c1C(=O)N(C1CCC(=O)NC1=O)C2 (stereo partly drawn) [Compound 22, (3R)-N-(3-{5-[4-(6-{3-[2-(2,6-dioxopiperidin-3-yl)-7-methoxy-1-oxo-2,3-dihydro-1H-isoindol-5-yl]propyl}-2,6-diazaspiro[3.3]heptan-2-yl)phenyl]-1H-pyrrolo[2,3-b]pyridine-3-carbonyl}-2,4-difluorophenyl)-3-fluoropyrrolidine-1-sulfonamide] | 5 to 50 | 35 to 70 | < 1 | 35 to 70
5 | O=C1CCC(N2Cc3cc(N4CC[C@H]4COc4ccc(-c5cnc6[nH]cc(C(=O)c7c(F)ccc(NS(=O)(=O)N8CC[C@@H](F)C8)c7F)c6c5)cc4)ccc3C2=O)C(=O)N1 (stereo partly drawn) [Compound 23, (3R)-N-{3-[5-(4-{[(2S)-1-[2-(2,6-dioxopiperidin-3-yl)-1-oxo-2,3-dihydro-1H-isoindol-5-yl]azetidin-2-yl]methoxy}phenyl)-1H-pyrrolo[2,3-b]pyridine-3-carbonyl]-2,4-difluorophenyl}-3-fluoropyrrolidine-1-sulfonamide] | > 500 |  | > 30 | 
6 | O=C1CCC(N2Cc3cc(N4CCC(CN5CCN(c6ccc(-c7cnc8[nH]cc(C(=O)c9c(F)ccc(NS(=O)(=O)N%10CC[C@@H](F)C%10)c9F)c8c7)cn6)CC5)CC4)ccc3C2=O)C(=O)N1 (stereo partly drawn) [Compound 25, (3R)-N-[3-(5-{6-[4-({1-[2-(2,6-dioxopiperidin-3-yl)-1-oxo-2,3-dihydro-1H-isoindol-5-yl]piperidin-4-yl}methyl)piperazin-1-yl]pyridin-3-yl}-1H-pyrrolo[2,3-b]pyridine-3-carbonyl)-2,4-difluorophenyl]-3-fluoropyrrolidine-1-sulfonamide] | 5 to 50 | 35 to 70 | < 1 | > 70
7 | O=C1CCC(N2Cc3cc(N4CC5(CN(c6ccc(-c7cnc8[nH]cc(C(=O)c9c(F)ccc(NS(=O)(=O)N%10CC[C@@H](F)C%10)c9F)c8c7)cc6)C5)C4)ccc3C2=O)C(=O)N1 (stereo partly drawn) [Compound 26, (3R)-N-{3-[5-(4-{6-[2-(2,6-dioxopiperidin-3-yl)-1-oxo-2,3-dihydro-1H-isoindol-5-yl]-2,6-diazaspiro[3.3]heptan-2-yl}phenyl)-1H-pyrrolo[2,3-b]pyridine-3-carbonyl]-2,4-difluorophenyl}-3-fluoropyrrolidine-1-sulfonamide] | > 500 | > 70 | < 1 | 35 to 70
8 | O=C1CC[C@H](NC(=O)c2ccc(N3CCN(CCc4ccc(-c5cnc6[nH]cc(C(=O)c7c(F)ccc(NS(=O)(=O)N8CC[C@@H](F)C8)c7F)c6c5)cc4)CC3)cc2F)C(=O)N1 [Compound 27, 4-[4-[2-[4-[3-[2,6-difluoro-3-[[(3R)-3-fluoropyrrolidin-1-yl]sulfonylamino]benzoyl]-1H-pyrrolo[2,3-b]pyridin-5-yl]phenyl]ethyl]piperazin-1-yl]-N-[(3S)-2,6-dioxo-3-piperidyl]-2-fluoro-benzamide] | 5 to 50 | > 70 | 1 to 10 | 35 to 70
9 | O=C1CC[C@@H](NC(=O)c2ccc(N3CCN(CCc4ccc(-c5cnc6[nH]cc(C(=O)c7c(F)ccc(NS(=O)(=O)N8CC[C@@H](F)C8)c7F)c6c5)cc4)CC3)cc2F)C(=O)N1 [Compound 28, 4-{4-[2-(4-{3-[2,6-difluoro-3-({[(3R)-3-fluoropyrrolidin-1-yl]sulfonyl}amino)benzoyl]-1H-pyrrolo[2,3-b]pyridin-5-yl}phenyl)ethyl]piperazin-1-yl}-N-[(3R)-2,6-dioxopiperidin-3-yl]-2-fluorobenzamide] | 50 to 500 | > 70 | < 1 | 35 to 70
10 | O=C1CC[C@H](NC(=O)c2ccc(N3CCC(CN4CC5(C4)CN(c4ccc(-c6cnc7[nH]cc(C(=O)c8c(F)ccc(NS(=O)(=O)N9CC[C@@H](F)C9)c8F)c7c6)cc4)C5)CC3)cc2F)C(=O)N1 [Compound 29, 4-(4-{[6-(4-{3-[2,6-difluoro-3-({[(3R)-3-fluoropyrrolidin-1-yl]sulfonyl}amino)benzoyl]-1H-pyrrolo[2,3-b]pyridin-5-yl}phenyl)-2,6-diazaspiro[3.3]heptan-2-yl]methyl}piperidin-1-yl)-N-[(3S)-2,6-dioxopiperidin-3-yl]-2-fluorobenzamide] | 5 to 50 | 35 to 70 | 1 to 10 | 35 to 70
